Experimental data reported in the supplement of paper PMC10307832.

Columns and labels:
Experiment in all cases: relative viability (nuclei count vs DMSO), 5 days (fraction); higher = more cells survive
[1] = compound: CC1=C(C(=NN1)C)CC2=C(C3=C(S2)N(C(=O)N(C3=O)C)CC(C)C)C(=O)N4C[C@@H](CO4)O + CC(C)C[C@H](NC(=O)[C@H](Cc1ccccc1)NC(=O)c1cnccn1)B(O)O [Bortezomib] (partner 0.002 µM)
Method in brief: (§1)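 The day after seeding in 1536-well plates, lung cancer cell lines were treated by pin tool with a single drug, or with a fixed anchor-drug dose together with five library-drug doses (not always all listed) in √10 steps. After 5 days, a combined fix-and-stain solution (final 0.05% Triton X-100, 1% formaldehyde, 1 ug/ml Hoechst) was added. Nuclei counted on 4× images gave relative viability as treated counts over vehicle counts, reported as the median of duplicate plates.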

[2] = compound: CC1=C(C(=NN1)C)CC2=C(C3=C(S2)N(C(=O)N(C3=O)C)CC(C)C)C(=O)N4C[C@@H](CO4)O + CC1(C)CCC(c2ccc(Cl)cc2)=C(CN2CCN(c3ccc(C(=O)NS(=O)(=O)c4ccc(N[C@H](CCN5CCOCC5)CSc5ccccc5)c(S(=O)(=O)C(F)(F)F)c4)cc3)CC2)C1 [Navitoclax] (partner 0.5 µM)
Method in brief: as §1

IDH-C35 + Phenformin = compound: Cc1ccccc1C(C(=O)NC1CCCCC1)N(C(=O)Cn1ccnc1C)c1cccc(F)c1 [IDH-C35] + N=C(N)NC(=N)NCCc1ccccc1 [Phenformin] (partner 250 µM)
Method in brief: as §1

[3] = compound: CC1=C(C(=NN1)C)CC2=C(C3=C(S2)N(C(=O)N(C3=O)C)CC(C)C)C(=O)N4C[C@@H](CO4)O + Nc1nc2[nH]cc(CCc3ccc(C(=O)N[C@@H](CCC(=O)O)C(=O)O)cc3)c2c(=O)[nH]1 [Pemetrexed] (partner 0.2 µM)
Method in brief: as §1

| Cell Line | relative viability ([1]; first compound 0.0025 µM) | relative viability ([1]; first compound 0.007906 µM) | relative viability ([1]; first compound 0.025 µM) | relative viability ([1]; first compound 0.07906 µM) | relative viability ([1]; first compound 0.25 µM) | relative viability ([2]; first compound 0.0025 µM) | relative viability ([2]; first compound 0.007906 µM) | relative viability ([2]; first compound 0.025 µM) | relative viability ([2]; first compound 0.07906 µM) | relative viability ([2]; first compound 0.25 µM) | relative viability (IDH-C35 + Phenformin; first compound 0.08 µM) | relative viability (IDH-C35 + Phenformin; first compound 0.253 µM) | relative viability (IDH-C35 + Phenformin; first compound 0.8 µM) | relative viability (IDH-C35 + Phenformin; first compound 2.53 µM) | relative viability (IDH-C35 + Phenformin; first compound 8 µM) | relative viability ([3]; first compound 0.0025 µM) | relative viability ([3]; first compound 0.007906 µM) | relative viability ([3]; first compound 0.025 µM) | relative viability ([3]; first compound 0.07906 µM) | relative viability ([3]; first compound 0.25 µM) |
| --- | --- | --- | --- | --- | --- | --- | --- | --- | --- | --- | --- | --- | --- | --- | --- | --- | --- | --- | --- | --- |
| NCI-H2347 | 1.09 | 1.15 | 0.684 | 0.718 | 0.852 | 0.86 | 0.691 | 0.828 | 0.69 | 0.771 | 0.421 | 0.516 | 0.362 | 0.474 | 0.241 | 0.434 | 0.438 | 0.41 | 0.378 | 0.383 |
| NCI-H2405 | 0.991 | 0.912 | 0.918 | 0.858 | 0.941 | 0.795 | 0.652 | – | 0.983 | 0.864 | 0.419 | 0.394 | 0.41 | 0.384 | 0.363 | 1.15 | 1.22 | 1.03 | 1 | 0.795 |
| NCI-H3122 | 0.963 | 0.978 | 1 | 0.99 | 1.02 | 1.02 | 1.04 | 0.996 | 1.01 | 0.995 | 0.391 | 0.372 | 0.4 | 0.376 | 0.359 | 0.196 | 0.202 | 0.185 | 0.187 | 0.216 |
| PC-3 [JPC-3] | 0.949 | 0.869 | 0.886 | 0.79 | 0.786 | 0.898 | 0.795 | 0.83 | 0.827 | 0.906 | 0.471 | 0.447 | 0.521 | 0.509 | 0.453 | 1.11 | 1.03 | 1.01 | 1.27 | 0.834 |
| PC-14 | 0.841 | 0.86 | 0.896 | 0.972 | 1.03 | 1.02 | 1.09 | 1.02 | 1 | 1.03 | 0.53 | 0.611 | 0.642 | 0.434 | 0.662 | 0.158 | 0.126 | 0.155 | 0.122 | 0.121 |
| RERF-LC-KJ | 1.01 | 1.23 | 1.22 | 1.06 | 1.21 | 1.18 | 0.99 | 1.01 | 0.713 | 0.897 | 0.415 | 0.443 | 0.419 | 0.456 | 0.403 | 0.46 | 0.468 | 0.463 | 0.511 | 0.503 |
| SK-LU-1 | 1.15 | 0.752 | 0.425 | 0.789 | 0.541 | 0.717 | 0.662 | 0.528 | 0.744 | 0.545 | 0.604 | 0.541 | 0.558 | 0.628 | 0.527 | 0.96 | 0.719 | 0.736 | 0.745 | 0.846 |
| SW 1573 | 1.09 | 1.13 | 1.1 | 1.07 | 0.893 | 0.978 | 1.1 | 0.927 | 0.929 | 1.12 | 0.456 | 0.372 | 0.387 | 0.359 | 0.352 | 0.759 | 1.05 | 0.773 | 0.853 | 0.981 |
